The numbers were not newly measured in patent US6709666B2, “Insecticidal mat and heat-transpiration insecticidal method using the same” (Dainihon Jochugiku Co., Ltd., priority 2000, dated 2004), which cites them from elsewhere.

For this data set the following is noted: at 20° C.

Turning to `C#CC(OC(=O)C1C(C=C(C)C)C1(C)C)/C(C)=C/CC` (stereo not shown) [empenthrin], the vapor pressure is given as 87 mPa.
